Results on 16 molecules are retold here after patent US8703771B2, “Preparation method of dihydroindene amide compounds, their pharmaceutical compositions containing compounds thereof and use as protein kinases inhibitor” (Harbin Gloria Pharmaceuticals Co., Ltd., priority 2008, dated 2014).

A word on the IC50: it is the point on the concentration scale where inhibition reaches its midpoint.

Test [1] addresses T1, c-Kit (Homo sapiens (Human), UniProt P10721). Nature of the test: Mobility Shift Assay of c-Kit kinase enzyme activity. The note with it: ATP at Km 87 μM, 40 minutes at 28° C., pre-activated c-Kit. It is filed as biochemical. As for the experimental part:
(§1) The activity of the compounds of this invention on Abl, c-Kit and PDGFR kinases was tested by Mobility Shift Assay (MSA).
(§2) • 1. Preparation of kinase buffer and stop buffer;
(§3) The compound was dissolved in DMSO and then serial dilutions were prepared; • 3. Preparation of kinase solution: Kinase solution was obtained by dissolving kinases in the kinase buffer mentioned above. With regard to c-Kit kinase, the pre-activation treatments should be carried out as follows. 700 nM c-Kit, 2 mM ATP, 4 mM DTT and 10 mM MgCl2 were dissolved in kinase buffer. After being incubated at 28° C. for 15 minutes, the solution was added to the kinase buffer; • 4. Preparation of polypeptide solution: Polypeptide FAM and ATP were dissolved in kinase buffer; • 5. The kinase solution was transferred to a culture plate and incubated for 10 minutes at room temperature. […] The polypeptide solution was transferred to the culture plate. […] The final concentrations of MgCl2 in all circumstances were all 10 mM; • 7. The mixture in each well of the plate was incubated at 28° C., for 1 hour for Abl, 40 minutes for c-Kit and 5 hours for PDGFR. The stop buffer was then added to terminate the reaction; • 8. Data were collected in Caliper and then input into the software XLfit to calculate IC50 values.

The target in a further test is PDGFR (Homo sapiens). Nature of the test: Mobility Shift Assay of PDGFR kinase enzyme activity. Particulars: ATP at Km 38 μM, 5 hours at 28° C. It is filed as biochemical. The method, then: as §1, §2, §3
PDGFR (Homo sapiens), sequence (P09619 33-1106 limits assumed): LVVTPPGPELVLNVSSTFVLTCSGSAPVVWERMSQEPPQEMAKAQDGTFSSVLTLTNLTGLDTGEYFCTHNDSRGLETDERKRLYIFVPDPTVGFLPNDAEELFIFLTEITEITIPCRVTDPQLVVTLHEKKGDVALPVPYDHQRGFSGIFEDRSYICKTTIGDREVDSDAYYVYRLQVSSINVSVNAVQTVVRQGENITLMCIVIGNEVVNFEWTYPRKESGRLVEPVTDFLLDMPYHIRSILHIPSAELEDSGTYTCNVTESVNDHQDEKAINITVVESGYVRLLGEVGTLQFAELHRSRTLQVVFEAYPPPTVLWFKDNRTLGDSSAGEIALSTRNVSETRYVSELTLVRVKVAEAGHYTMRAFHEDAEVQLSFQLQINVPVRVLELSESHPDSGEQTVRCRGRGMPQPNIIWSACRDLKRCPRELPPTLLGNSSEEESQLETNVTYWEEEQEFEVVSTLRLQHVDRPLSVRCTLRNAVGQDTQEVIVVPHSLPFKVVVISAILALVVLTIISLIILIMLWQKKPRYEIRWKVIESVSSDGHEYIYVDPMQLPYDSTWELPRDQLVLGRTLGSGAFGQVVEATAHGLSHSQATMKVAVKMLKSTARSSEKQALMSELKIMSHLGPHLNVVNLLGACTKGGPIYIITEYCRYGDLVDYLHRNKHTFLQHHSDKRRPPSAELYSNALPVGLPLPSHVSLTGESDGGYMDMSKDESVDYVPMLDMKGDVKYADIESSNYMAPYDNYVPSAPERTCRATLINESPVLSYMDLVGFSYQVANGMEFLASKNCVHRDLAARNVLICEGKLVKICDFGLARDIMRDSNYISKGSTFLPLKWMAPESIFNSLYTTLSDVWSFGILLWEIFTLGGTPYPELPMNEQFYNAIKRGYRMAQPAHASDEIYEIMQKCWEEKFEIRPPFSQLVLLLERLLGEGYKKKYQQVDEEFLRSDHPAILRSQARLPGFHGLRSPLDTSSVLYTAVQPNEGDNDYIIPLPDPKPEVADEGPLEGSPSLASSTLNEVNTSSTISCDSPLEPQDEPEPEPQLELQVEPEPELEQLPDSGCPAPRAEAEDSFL
Test [2] has as its target T1, c-Kit. The test can be described thus: 33P-ATP kinase assay, c-Kit. It is filed as biochemical. The note with it: 33P-ATP assay; ATP concentration 30 μM; 2 mM MnCl2 in buffer. As for the experimental part:
(§4) Inhibitory activity of the compounds of this invention on Abl, c-Kit and PDGFR mutant kinases was tested by the phosphor isotope-labelled ATP (^33P-ATP) assay. • 1. Substrate solution was prepared using newly-prepared reaction buffer. The buffer includes: 20 mM HEPES, pH 7.5, 10 mM MgCl2, 1 mM EGTA, 0.02% Brij 35, 0.02 mg/ml BSA, 0.1 mM Na3VO4, 2 mM DTT, 1% DMSO. […] Required co-enzymes were added to the above substrate solution; • 3. Kinases were added and mixed gently; • 4. The tested compound was dissolved in DMSO, and then added to the above kinase solution by using Acoustic technique (Echo550, nanoliter range) and incubated for 20 minutes; • 5. ^33P-ATP was added to the above reaction mixture to initiate the reaction; • 6. The mixture was incubated for 2 hours at room temperature; • 7. The activity of kinases was tested by filtration-combination; • 8. The data were processed in Excel and the control data were subtracted. A curve was drawn by the GraphPad Prism software to get the IC50 value.

The target in the next test is c-Kit (D816H) (Homo sapiens (Human), UniProt P10721, D816H). The test can be described thus: 33P-ATP kinase assay, c-Kit (D816H). It is filed as biochemical. The note with it: 33P-ATP assay; ATP concentration 30 μM. The method, then:
as §4

For a further test, the target named is c-Kit (D816V) (Homo sapiens (Human), UniProt P10721, D816V). Nature of the test: 33P-ATP kinase assay, c-Kit (D816V). It is filed as biochemical. Particulars: 33P-ATP assay; ATP concentration 30 μM. The method, then: as §4
c-Kit (D816V), sequence (P10721 26-976 D816V): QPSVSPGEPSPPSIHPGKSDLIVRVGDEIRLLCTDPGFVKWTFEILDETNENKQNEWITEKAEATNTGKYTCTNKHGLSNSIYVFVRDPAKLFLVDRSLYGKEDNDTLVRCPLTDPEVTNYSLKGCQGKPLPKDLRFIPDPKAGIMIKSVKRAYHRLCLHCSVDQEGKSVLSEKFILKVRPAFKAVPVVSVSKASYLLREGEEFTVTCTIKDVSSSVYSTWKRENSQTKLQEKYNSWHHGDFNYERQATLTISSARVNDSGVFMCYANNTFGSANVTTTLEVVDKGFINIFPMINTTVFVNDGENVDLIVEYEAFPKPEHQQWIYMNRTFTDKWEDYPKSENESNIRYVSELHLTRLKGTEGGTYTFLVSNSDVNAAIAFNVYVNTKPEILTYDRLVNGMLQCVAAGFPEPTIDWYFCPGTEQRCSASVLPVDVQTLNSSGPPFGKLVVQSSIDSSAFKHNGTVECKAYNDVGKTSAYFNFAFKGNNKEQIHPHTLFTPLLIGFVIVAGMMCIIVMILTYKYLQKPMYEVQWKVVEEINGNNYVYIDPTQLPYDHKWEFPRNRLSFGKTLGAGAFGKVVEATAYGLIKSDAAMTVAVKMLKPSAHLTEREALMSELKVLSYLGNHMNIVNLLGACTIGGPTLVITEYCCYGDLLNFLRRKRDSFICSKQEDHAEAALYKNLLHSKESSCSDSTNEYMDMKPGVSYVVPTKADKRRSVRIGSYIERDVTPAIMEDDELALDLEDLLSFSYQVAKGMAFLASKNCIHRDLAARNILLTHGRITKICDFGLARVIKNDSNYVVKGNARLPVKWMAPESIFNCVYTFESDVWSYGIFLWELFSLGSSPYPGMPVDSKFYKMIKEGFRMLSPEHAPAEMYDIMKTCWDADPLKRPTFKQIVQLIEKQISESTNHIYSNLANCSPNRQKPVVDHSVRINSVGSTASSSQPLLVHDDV
The target of the next test is c-Kit (T670I) (Homo sapiens (Human), UniProt P10721, T670I). The test can be described thus: 33P-ATP kinase assay, c-Kit (T670I). It is filed as biochemical. The note with it: 33P-ATP assay; ATP concentration 30 μM. As for the experimental part:
as §4

For a further test, the target named is c-Kit (V560G) (Homo sapiens (Human), UniProt P10721, V560G). Nature of the test: 33P-ATP kinase assay, c-Kit (V560G). It is filed as biochemical. Particulars: 33P-ATP assay; ATP concentration 30 μM. As for the experimental part:
as §4

The next test has as its target c-Kit (V654A) (Homo sapiens (Human), UniProt P10721, V654A). Nature of the test: 33P-ATP kinase assay, c-Kit (V654A). It is filed as biochemical. The note with it: 33P-ATP assay; ATP concentration 30 μM; 2 mM MnCl2 in buffer. As for the experimental part: as §4
For test [3], the system named is chronic myeloid leukaemia cell K562. Nature of the test: cells. The note with it: Homo sapiens, K562, 72 h, read-out: IC50 (nM) inhibition of K562 cell growth.
Test [4] shares this test system. The test can be described thus: MTS growth inhibition assay, K562 cell strain. It is filed as cell-based. The note with it: Homo sapiens, MTS/PMS, 72 hours. As for the experimental part: (§5) This invention also tested the inhibitory activity of the compounds of this invention on the growth of chronic myeloid leukaemia cell K562, KU812, and MEG-01, acute myeloid leukaemia cell Kasumi-1 and acute lymphatic leukemia cell Sup-B15.
(§6) 1. Preparation of Assay Solution
(§7) (1) Preparation of PMS solution: PMS was dissolved in DPBS to give a concentration of […]. The solution was then filtered into a sterile and lightproof container;
(§8) (2) Preparation of MTS solution: a) 21 ml DPBS was added to a lightproof container; b) 42 mg MTS powder was weighted and then added to DPBS; c) the above were mixed on a electromagnetic stirrer until the powder was dissolved; d) the pH value was measured. […] If the pH was higher than 6.5, it should be adjust to 6.5 with 1 N HCl; e) the solution was filtered into a sterile and lightproof container; (3) Preparation of MTS/PMS mixture: a) 2 ml of the MTS solution was transferred to a tube; b) 100 μL of the PMS solution was added to the tube; c) the tube was vortexed gently to mix the solution thoroughly. 2. […] 3. […] 4.
For orientation: Formazan colour is commonly taken as a measure of viable cells.

Test [5] has as its system chronic myeloid leukaemia cell KU812. The test can be described thus: MTS growth inhibition assay, KU812 cell strain. It is filed as cell-based. The note with it: MTS/PMS, 72 hours. As for the experimental part: as §5, §6, §7, §8
Test [6] deals with chronic myeloid leukaemia cell MEG-01. The test can be described thus: MTS growth inhibition assay, MEG-01 cell strain. It is filed as cell-based. The note with it: MTS/PMS, 72 hours. As for the experimental part:
as §5, §6, §7, §8

Test [7] has as its system acute myeloid leukaemia cell Kasumi-1. The test can be described thus: MTS growth inhibition assay, Kasumi-1 cell strain. It is filed as cell-based. The note with it: Homo sapiens, MTS/PMS, 72 hours. As for the experimental part: as §5, §6, §7, §8
For test [8], the system named is acute lymphatic leukemia cell Sup-B15. The test can be described thus: MTS growth inhibition assay, Sup-B15 cell strain. It is filed as cell-based. Particulars: MTS/PMS, 72 hours. As for the experimental part:
as §5, §6, §7, §8

Test [9] has as its system chronic myeloid leukaemia cell K562. The note with it: read-out: IC50 (nM) inhibition of K562 cell growth; CellTiter-Glo; 72 hours.

Counter-ions that a name gives are not always drawn. Like-named read-outs stand apart in the source and are kept apart here.

T1 sequence (P10721 26-976): as the sequence (P10721 26-976 D816V) above, with V791D counted along it
c-Kit (V560G), sequence (P10721 26-976 V560G): as the sequence (P10721 26-976 D816V) above, with V535G, V791D counted along it
c-Kit (D816H), sequence (P10721 26-976 D816H): as the sequence (P10721 26-976 D816V) above, with V791H counted along it
c-Kit (T670I), sequence (P10721 26-976 T670I): as the sequence (P10721 26-976 D816V) above, with T645I, V791D counted along it
c-Kit (V654A), sequence (P10721 26-976 V654A): as the sequence (P10721 26-976 D816V) above, with V629A, V791D counted along it

Regarding `Cc1ccc(NC(=O)c2ccc3c(c2)CCC3N2CCN(C)CC2)cc1Nc1nccc(-c2cccnc2)n1` (stereo not shown) [EXAMPLE 1, 1-(4-methylpiperazin-1-yl)-N-(4-methyl-3-[(4-pyridin-3-ylpyrimidin-2-yl)amino]phenyl)-2,3-dihydro-1H-inden-5-carboxamide], the IC50 on c-Kit [1] is 22 nM; on PDGFR (Homo sapiens), 17 nM.
On the same counts, the results for `Cc1ccc(NC(=O)c2ccc3c(c2)CCC3N2CCN(C(=O)OC(C)(C)C)CC2)cc1Nc1nccc(-c2cccnc2)n1` (stereo not shown) [EXAMPLE 2, tert-butyl 4-{5-[({4-methyl-3-[(4-pyridin-3-ylpyrimidin-2-yl)amino]phenyl}amino)carbonyl)-2,3-dihydro-1-H-inden-1-yl}piperazin-1-carboxylate] are 1190 nM and 233 nM.
In the case of `Cc1ccc(NC(=O)c2ccc3c(c2)CCC3N2CCNCC2)cc1Nc1nccc(-c2cccnc2)n1` (stereo not shown) [EXAMPLE 3, N-(4-methyl-3-[(4-pyridin-3-ylpyrimidin-2-yl)amino]phenyl)-1-piperazin-1-yl-2,3-dihydro-1H-indene-5-carboxamide], the IC50 at c-Kit [1] amounted to 16 nM.
As to `Cc1ccc(NC(=O)c2ccc3c(c2)CCC3N2CCN(C(C)C)CC2)cc1Nc1nccc(-c2cccnc2)n1` (stereo not shown) [EXAMPLE 5, 1-(4-isopropylpiperazin-1-yl)-N-(4-methyl-3-[(4-pyridin-3-ylpyrimidin-2-yl)amino]phenyl)-2,3-dihydro-1H-indene-5-carboxamide], the IC50 at c-Kit [1] is 23 nM; at PDGFR (Homo sapiens), 18 nM.
On to `Cc1ccc(NC(=O)c2ccc3c(c2)CCC3N2CCN(CCO)CC2)cc1Nc1nccc(-c2cccnc2)n1` (stereo not shown) [EXAMPLE 6], for which the 50% inhibitory concentration (IC50) was determined as 32 nM on c-Kit [1] and 20 nM at PDGFR (Homo sapiens).
In the case of `CC(=O)N1CCN(C2CCc3cc(C(=O)Nc4ccc(C)c(Nc5nccc(-c6cccnc6)n5)c4)ccc32)CC1` (stereo not shown) [EXAMPLE 7, 1-[4-acetylpiperazin-1-yl)-N-(4-methyl-3-[(4-pyridin-3-ylpyrimidin-2-yl)amino]phenyl)-2,3-dihydro-1H-indene-5-carboxamide], the IC50 at c-Kit [1] came out at 529 nM; on PDGFR (Homo sapiens), 41 nM.
For `Cc1ccc(NC(=O)c2ccc3c(c2)CCC3N2CCN(C)CC2)cc1Nc1nccc(-c2cncnc2)n1` (stereo not shown) [EXAMPLE 8, N-[3-(4,5′-bipyrimidine-2-ylamino)-4-methylphenyl]-1-(4-methylpiperazin-1-yl)-2,3-dihydro-1H-indene-5-carboxamide] the same measures were 32 nM and 22 nM.
As to `Cc1ccc(NC(=O)c2ccc3c(c2)CCC3N2CC[C@H](N(C)C)C2)cc1Nc1nccc(-c2cccnc2)n1` (stereo partly drawn) [EXAMPLE 9, 1-[(3S)-3-(dimethylamino)pyrrolidin-1-yl]-N-{4-methyl-3-[(4-pyridin-3-ylpyrimidin-2-yl)amino]phenyl}-2,3-dihydro-1H-indene-5-carboxamide], the IC50 was 51 nM at c-Kit [1] and 15 nM at PDGFR (Homo sapiens).
For the molecule `Cc1ccc(NC(=O)c2ccc3c(c2)CC[C@@H]3N2CCN(C)CC2)cc1Nc1nccc(-c2cccnc2)n1` [EXAMPLE 11, (1S)-1-(4-methylpiperazin-1-yl)-N-(4-methyl-3-[(4-pyridin-3-ylpyrimidin-2-yl)amino]phenyl)-2,3-dihydro-1H-indene-5-carboxamide], the IC50 at c-Kit [1] stood at 8.5 nM; on PDGFR (Homo sapiens), 9.6 nM; on c-Kit [2], 132 nM; on c-Kit (D816H), 83.6 nM; at c-Kit (D816V) it was 1740 nM; at c-Kit (T670I), 2060 nM. In addition, the IC50 on c-Kit (V560G) turned out to be 1.77 nM; on c-Kit (V654A) it was 969 nM; in test [3], 3.2 nM.
As to `Cc1ccc(NC(=O)c2ccc3c(c2)CC[C@H]3N2CCN(C)CC2)cc1Nc1nccc(-c2cccnc2)n1` [EXAMPLE 12, (1R)-1-(4-methylpiperazin-1-yl)-N-(4-methyl-3-[(4-pyridin-3-ylpyrimidin-2-yl)amino]phenyl)-2,3-dihydro-1H-indene-5-carboxamide], the IC50 on c-Kit [1] turned out to be 2250 nM; on PDGFR (Homo sapiens) it was 53 nM; in test [3], 208 nM.
On the same counts, the results for `Cc1ccc(NC(=O)c2ccc3c(c2)CC[C@@H]3N2CCN(C)CC2)cc1Nc1nccc(-c2cncnc2)n1` [EXAMPLE 13, (1S)—N-[3-(4,5′-bipyrimidin-2-ylamino)-4-methylphenyl]-1-(4-methylpiperazin-1-yl)-2,3-dihydro-1H-indene-5-carboxamide] are 15 nM, 13 nM and 2.2 nM.
`Cc1ccc(NC(=O)c2ccc3c(c2)CC[C@H]3N2CCN(C)CC2)cc1Nc1nccc(-c2cncnc2)n1` [EXAMPLE 14, (1R)—N-[3-(4,5′-bipyrimidin-2-ylamino)-4-methylphenyl]-1-(4-methylpiperazin-1-yl)-2,3-dihydro-1H-indene-5-carboxamide]: the IC50 at c-Kit [1] turned out to be 2260 nM; on PDGFR (Homo sapiens), 65 nM.
For `Cc1ccc(NC(=O)c2ccc3c(c2)CC[C@@H]3N2CCN(C)CC2)cc1Nc1nccc(-c2ccncc2)n1` [EXAMPLE 15, (1S)-1-(4-methylpiperazin-1-yl)-N-(4-methyl-3-[(4-pyridin-4-ylpyrimidin-2-yl)amino]phenyl)-2,3-dihydro-1H-indene-5-carboxamide], the results for the IC50 (on c-Kit [1]; at PDGFR (Homo sapiens); in [3]) were 526 nM, 24 nM and 35 nM, respectively.
`Cc1ccc(NC(=O)c2ccc3c(c2)CC[C@@H]3N2CCN(C)CC2)cc1Nc1nccc(-c2cccnc2)n1` [EXAMPLE 16, (1S)-1-(4-methylpiperazin-1-yl)-N-(4-methyl-3-[(4-pyridin-3-ylpyrimidin-2-yl)amino]phenyl)-2,3-dihydro-1H-indene-5-carboxamide sulfate]: the IC50 in test [4] was 0.25 nM; in [5] (Homo sapiens, KU812), 0.024 nM; in [6] (Homo sapiens, MEG-01), 0.085 nM; in [7] it was 11.2 nM; in test [8] (Homo sapiens, SUP-B15), 39.6 nM.
For `Cc1cn(-c2cc(NC(=O)c3ccc(C)c(Nc4nccc(-c5cccnc5)n4)c3)cc(C(F)(F)F)c2)cn1` [Nilotinib], the IC50 is 6.26 nM in [4]; 2.1 nM in test [5] (Homo sapiens, KU812); 1.65 nM in [6] (Homo sapiens, MEG-01); 22.3 nM in test [7]; 135 nM in [8] (Homo sapiens, SUP-B15).
Turning to `CN[C@@H]1C[C@H]2O[C@@](C)([C@@H]1OC)n1c3ccccc3c3c4c(c5c6ccccc6n2c5c31)C(=O)NC4` [Staurosporine], the IC50 in [5] was found to be 9.57 nM; in [6] it was 8.97 nM; in test [8] it was 6.84 nM; in test [9] it was 139 nM.
